Consider 1 compound from patent publication US6737425B1, “N,N-substituted cyclic amine derivatives” (Eisai Co., Ltd., priority 1998, dated 2004).

Experiment [1] relates to voltage-dependent calcium channels (cerebral cortex synaptosome). Description: Measurement of voltage-dependent calcium channel activity by the use of a fluorescent pigment (fura 2). In kind it is cell-based. Particulars: rat cerebral cortex synaptosome, fura 2, KCl stimulation, compound incubated 10 minutes. An outline of the steps:
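Synaptosomes were prepared from rat cerebral cortex by sucrose homogenisation and 0.8 M sucrose gradient centrifugation. They were loaded with fura-2/AM by mixing with an equal volume of 4 μM loading solution for 40 min at room temperature. Verapamil hydrochloride served as the reference compound.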

Experiment [2] has as its system rat model with occlusion in the middle cerebral artery. Description: Effect (I) of reducing infarct volume in a rat model with occlusion in the middle cerebral artery (2 hours occlusion). In kind it is in vivo. Particulars: for Infarct volume in the cerebral cortex, Mean: from 30 minutes after occlusion, 6 hours, 2 hours occlusion, 24 hours after occlusion; for reduction of infarct volume in the cerebral cortex: vs control group. How it is done: Effect (I) of Reducing Infarct Volume in a Rat Model with Occlusion in the Middle Cerebral Artery
The compound in Example 1 was selected as the typical example of the compound of the present invention, and this sample was dissolved in 5.28% mannitol to be adjusted to a dosage of 5 or 10 mg/kg/h just before use. The concentration of the sample was calculated on the basis of the average weight of animals, as shown in the following example. The average weight was determined by measuring the weights of all animals to be used in the experiment.
For occlusion in the middle cerebral artery, an embolus prepared from nylon yarn of 4-0 monofilament (Ethicon, Inc., Somerville, N.J., USA) was used. The end of the nylon embolus was previously rounded with flame, and it was cut into fragments of 25 mm in length, and each fragment was marked at a position 17 mm apart from the end with an oil-based felt pen.
Implantation of a catheter for intravenous administration (Atom venous catheter 3Fr, Atom Medical Co., Ltd., Tokyo) was conducted under anesthesia with 70% laughing gas-2% halothane. The catheter filled with physiological saline was inserted through the thigh vein in the left leg.
Occlusion in the middle cerebral artery was conducted in accordance with the method of Longa et al. (12). Just after the catheter was implanted, the operation was conducted under anesthesia with 70% laughing gas-2% halothane. A rat was allowed to lie on the back and the cervical region was cut open under a stereoscopic microscope for operation, and the part where the common carotid artery at the right side branched into the external carotid artery and the internal carotid artery was confirmed. The external carotid artery was cut at the peripheral side, and the nylon embolus was inserted through the end of the cut external carotid artery into the internal carotid artery. The embolus was inserted until the position 17 mm apart from the end of the embolus reached the point where the external carotid artery was joined to the internal carotid artery, and the embolus was fixed. To initiate blood stream again, the nylon embolus was removed 2 hours after the middle cerebral artery was occluded. […]
Twenty four hours after the middle cerebral artery was occluded, the head was cut off from the rat and the brain was taken out. […] The sample was left at room temperature for at least 1 hour in the TTC solution and then measured for the infarct area. […]

The subject of experiment [3] is glutamic acid release from rat cerebral cortex slices. Nature of the experiment: Inhibitory activity on glutamic acid release (cerebral cortex slices, high-conc. KCl). In kind it is cell-based. Conditions: glutamic acid release induced with 50 mM KCl, HPLC. As for the experimental part: Inhibitory Activity on Glutamic Acid Release
Cerebral cortexes were isolated from SD strain male rats (8-week-old) and used to prepare 300 μm×300 μm slices by use of a slice chopper. The prepared slices were incubated at 37° C. for 30 minutes in solution C (120 mM NaCl, 4 mM KCl, 10 mM MgSO4, 16 mM NaHCO3, 10 mM glucose, 1 mM NaH2PO4, 10 mM HEPES-NaOH pH 7.4) in the presence of 95% O2/5% CO2. Thereafter, solution C was exchanged with fresh one, followed by further incubation for 30 minutes.
The cerebral cortex slices were incubated in a 24-wells plate for cell culture according to a multi-well method (Brain Res., 402, 255-263, 1987), and the release of glutamic acid was induced with 50 mM KCl. Solution D (120 mM NaCl, 4 mM KCl, 1.2 mM CaCl2, 1 mM MgSO4, 16 mM NaHCO3, 10 mM glucose, 1 mM NaH2PO4, 10 mM HEPES-NaOH pH 7.4) was aerated with 95% O2/5% CO2 and kept at 37° C. and used in this experiment. 50 mM KCl containing the same total amount of K^+ and Na^+ was prepared. Slices corresponding to 1 to 2 mg protein were placed on an upper cup provided with a mesh at the bottom, and 1.3 ml solution C or 50 mM KCl solution was introduced into a lower well, and the upper cup was transferred to a new well. 20 minutes before and 5 minutes after reaction was intiated, the test compound was added to solution D or 50 mM KCl.
Glutamic acid was quantified by HPLC using fluorescent etor (Ex. 330 nm Em. […]). The eluting solvent used was prepared by diluting 150 ml sodium citrate buffer for automatic amino acid analysis (Wako Pure Chemical Industries) 10-fold with distilled water, then adding MgCl2 thereto at the final concentration of 50 mM, and further diluting it twice with acetonitrile. The flow rate was 2.0 ml/min. The column used was Asahipak (ES-502N Denko, K. K.). The glutamic acid was converted into a derivative by addition, to 50 μl sample, of 50 μl deriving agent (10 mg o-phthalaldehyde/500 μl MeOH, 10 μl b-mercaptopropionic acid, 0.15 M sodium borate buffer pH 9.5, 100 μl) followed by stirring (Neuroscience Lett., 96, 202-206, 1989).

Where “and” joins values, the source holds several entries; their conditions need not be identical. Equal values may be shown once.

One may read the IC50 as the concentration at which inhibition is half-maximal. For `CC(C)C(C#N)(CCCN1CCN(CCOc2ccc(F)cc2)CC1)c1ccccc1` (stereo not drawn) [Example 1, 1-[(4-Cyano-5-methyl-4-phenyl)hexyl]-4-[2-(4-fluorophenoxy)ethyl]piperazine], the IC50 in experiment [1] was 5.9 µM; in experiment [3], 3.5 µM. Moreover, the “Infarct volume in the cerebral cortex, Mean” value in experiment [2] (5 mg/kg/h i.v. (table: 5 mg/kg)) is 162.2±16.3 mm^3 and 162.17 mm^3; in experiment [2] (10 mg/kg/h i.v. (table: 10 mg/kg)), 135.5±26.2 mm^3 and 135.50 mm^3. Also, the “reduction of infarct volume in the cerebral cortex” value turned out to be 28% in experiment [2] (5 mg/kg/h i.v.) and 40% in experiment [2] (10 mg/kg/h i.v.).
